How the values were obtained:
AMPK = test: Evaluation on effect of activating AMPK (phosphorylation of ACC Ser79, Cell ELISA in MDA-MB-453 cells); type: cell-based; conditions: Homo sapiens, 2 hours, concentration as freebase
Method: 36 μl each of MDA-MB-453 cells was seeded in Leibovitz's L-15 medium including 10% fetal bovine serum (Life Technologies Corporation) in a 384 well plate so that the cells became 15,000 cells per well, and the cells were cultured overnight at 37° C. in the absence of CO2. […] After that, the cells were cultured at 37° C. for 2 hours in the absence of CO2. 20 μl of a 40% glyoxal solution (Nacalai Tesque, INC.) was added to each well, and then the cells were left to stand at room temperature for 30 minutes to be fixed. Thereafter, the supernatant was removed by centrifuging the plate (at 800 rpm for 8 seconds by using the Ecospin of C.A.N. Hereinafter the centrifugation was performed under the same conditions unless otherwise specified), and 20 μl of 0.1% Triton X-100-containing Phosphate-Buffered Saline (PBS) was added to each well, and then left to stand at room temperature for 10 minutes. The 0.1% Triton X-100-containing PBS was removed by centrifugation, and 20 μl of a blocking solution (Odyssey Blocking Buffer manufactured by LI-COR Biosciences, Inc.) was added to each well, and then left to stand at room temperature for 1 hour. […] On the following day, the reaction solution was removed by centrifuging the plate, and 25 μl of 0.05% Tween-20-containing Tris-Buffered Saline (TBS) (manufactured by Thermo Scientific; used in 1× by diluting 20×TBS Tween-20 with ion-exchange water) was added to each well, and then each well was washed by centrifugal removal. The washing was performed for a total of 3 times. […] The reaction solution was removed by centrifuging the plate, and then each well was washed for 3 times with 0.05% Tween-20-containing TBS in the same manner as after the primary antibody reaction. After the washing solution was removed, the plate was air-dried at room temperature for 3 hours or longer and signals were measured by Aerius (manufactured by LI-COR Biosciences, Inc.).

A427 cells [1] = test: Anti-tumor test (2) on mice bearing A427 tumors; type: in vivo, BALB/c nude mice; conditions: final measuring day
Method: (§1) A427 cells and NCI-H1395 cells which are LKB1 mutation-positive non-small cell lung cancer cell lines, and HARA cells and NCI-H1993 cells which are LKB1 wild-type non-small cell lung cancer cell lines, suspended in a mixed solution of PBS and Matrigel (registered trademark) in 1:1, were injected and implanted, 3×10^6 cells each (for A427 cells, 5×10^6), to 4- to 5-week-old male BALB/c nude mice (Charles River Laboratories Japan, Inc.) under the skin on the back. Dividing into groups was performed when the tumor volume reached 100 to 300 mm^3, and administering of the test compounds was started. The test was performed on each of the 5 mice in the solvent group and the compound administered group. By oral administration, 6% cyclodextrin aqueous solution for the solvent group, and 6% cyclodextrin aqueous solution in which the test compound was mixed by the dosage shown in Table 4 for the compound administered group were administered. The administration was performed once a day for 14 days (HARA), 21 days (A427, NCI-H1993), or 35 days (NCI-H1395), and the body weight and the tumor diameter were measured twice a week. For calculation of the tumor volume, the formula below was used.
(§2) [Tumor volume (mm^3)]−[major axis of tumor (mm)]×[minor axis of tumor (mm)]^2×0.5
(§3) The inhibition rate of tumor growth and the rate of tumor regression were calculated from the average value of the tumor volume according to the formula below.
(§4) Inhibition rate of tumor growth (%)=(1−average of tumor volume growth in each group/average of tumor volume growth in control group)×100
(§5) Rate of tumor regression (%)=(1−average tumor volume in each group on measuring day/average tumor volume in each group when dividing groups)×100

NCI-H1395 cells [2] = test: Anti-tumor test (2) on mice bearing NCI-H1395 tumors; type: in vivo, BALB/c nude mice; conditions: final measuring day
Method: as §1, §2, §3, §4, §5

HARA cells [3] = test: Anti-tumor test (2) on mice bearing HARA tumors; type: in vivo, BALB/c nude mice; conditions: Test Example 4, HARA, final measuring day
Method: as §1, §2, §3, §4, §5

NCI-H1993 cells [4] = test: Anti-tumor test (2) on mice bearing NCI-H1993 tumors; type: in vivo, BALB/c nude mice; conditions: final measuring day
Method: as §1, §2, §3, §4, §5

A427 cells [5] = test: Anti-tumor test (1) on mice bearing A427 tumors; type: in vivo, BALB/c nude mice; conditions: Test Example 3, A427 (LKB1 mutation-positive), 8 mg/kg oral once a day for 21 days, final measuring day
Method: (§6) A427 cells and NCI-H1395 cells which are LKB1 mutation-positive non-small cell lung cancer cell lines, and HARA cells and NCI-H1993 cells which are LKB1 wild-type non-small cell lung cancer cell lines, suspended in a mixed solution of PBS and Matrigel (registered trademark) in 1:1, were injected and implanted, 3×10^6 cells each, to 4- to 5-week-old male BALB/c nude mice (Charles River Laboratories Japan, Inc.) under the skin on the back. After that, administering of the test compounds was started after confirming that the average tumor volume exceeded 100 mm^3. The test was performed on each of the 4 to 5 mice in a solvent group and a compound administered group. By oral administration, 6% cyclodextrin aqueous solution for the solvent group, and 6% cyclodextrin aqueous solution in which the test compound was mixed by 8 mg/kg for the compound administered group were administered. The administration was performed once a day for 14 days (NCI-H1993, HARA), 21 days (A427), or 35 days (NCI-H1395), and the body weight and the tumor diameter were measured twice a week. For calculation of the tumor volume, the formula below was used.
(§7) [Tumor volume (mm^3)]=[major axis of tumor (mm)]×[minor axis of tumor (mm)]^2×0.5
(§8) The inhibition rate of tumor growth and the rate of tumor regression were calculated from the average value of the tumor volume according to the formula below. […]

NCI-H1395 cells [6] = test: Anti-tumor test (1) on mice bearing NCI-H1395 tumors; type: in vivo, BALB/c nude mice; conditions: Test Example 3, NCI-H1395 (LKB1 mutation-positive), 8 mg/kg oral once a day for 35 days, final measuring day
Method: as §6, §7, §8

HARA cells [7] = test: Anti-tumor test (1) on mice bearing HARA tumors; type: in vivo, BALB/c nude mice; conditions: Test Example 3, HARA (LKB1 wild-type), 8 mg/kg oral once a day for 14 days, final measuring day
Method: as §6, §7, §8

NCI-H1993 cells [8] = test: Anti-tumor test (1) on mice bearing NCI-H1993 tumors; type: in vivo, BALB/c nude mice; conditions: Test Example 3, NCI-H1993 (LKB1 wild-type), 8 mg/kg oral once a day for 14 days, final measuring day
Method: as §6, §7, §8

[9] = Test Example 4, A427, 1 mg/kg oral once a day for 21 days
[10] = Test Example 4, NCI-H1395, 1 mg/kg oral once a day for 35 days
[11] = 1 mg/kg oral once a day for 14 days
[12] = Test Example 4, NCI-H1993, 1 mg/kg oral once a day for 21 days
[13] = Test Example 4, A427, 8 mg/kg oral once a day for 21 days
[14] = Test Example 4, NCI-H1395, 8 mg/kg oral once a day for 35 days
[15] = 8 mg/kg oral once a day for 14 days
[16] = Test Example 4, NCI-H1993, 8 mg/kg oral once a day for 21 days

In the case of `CCOc1cnc(CN2CCC(c3ccc4cc(C(=O)N5CCN(Cc6ccc(C#N)cc6)CC5)n(C)c4c3)CC2)cn1` [Compound C1, 4-({4-[(6-{1-[(5-ethoxypyrazin-2-yl)methyl]piperidin-4-yl}-1-methyl-1H-indol-2-yl)carbonyl]piperazin-1-yl}methyl)benzonitrile], the EC50 (AMPK) is reported as 1.8 nM, the “Regression rate A427” value (A427 cells [1]; [9]) is reported as 69% regression and the “Inhibition rate NCI-H1395” value (NCI-H1395 cells [2]; [10]) is reported as 75%. The “Inhibition rate HARA” value (HARA cells [3]; [11]) was 29% and the “Inhibition rate NCI-H1993” value (NCI-H1993 cells [4]; [12]) was 50%.

For `COc1cnc(CN2CCC(c3ccc4[nH]c(C(=O)N5CCN(Cc6ccc(C(F)(F)F)cc6)CC5)nc4c3)CC2)cn1` [Compound B1, (5-{1-[(5-methoxypyrazin-2-yl)methyl]piperidin-4-yl}-1H-benzimidazol-2-yl) {4-[4-(trifluoromethyl)benzyl]piperazin-1-yl}methanone], the EC50 (AMPK) was 8.3 nM, the “Inhibition rate A427” value (A427 cells [1]; [13]) was 99% inhibition and the “Inhibition rate NCI-H1395” value (NCI-H1395 cells [2]; [14]) was 74%. The “Inhibition rate HARA” value (HARA cells [3]; [15]) was 14% and the “Inhibition rate NCI-H1993” value (NCI-H1993 cells [4]; [16]) was 62%.

`COc1cnc(CN2CCC(c3ccc4c(c3)cc(C(=O)N3CCN(Cc5ccc(C#N)cc5)CC3)n4C)CC2)cn1` [Compound D1, 4-({4-[(5-{1-[(5-methoxypyrazin-2-yl)methyl]piperidin-4-yl}-1-methyl-1H-indol-2-yl)carbonyl]piperazin-1-yl}methyl)benzonitrile] was tested, and the EC50 (AMPK) was 3.3 nM, the “Inhibition rate A427” value (A427 cells [1]; [9]) was 96% inhibition and the “Inhibition rate NCI-H1395” value (NCI-H1395 cells [2]; [10]) was 70%. The “Inhibition rate HARA” value (HARA cells [3]; [11]) was 31% and the “Inhibition rate NCI-H1993” value (NCI-H1993 cells [4]; [12]) was 42%.

With `COc1ccc(CN2CCC(c3ccc4[nH]c(C(=O)N5CCN(Cc6ccc(C(F)(F)F)cc6)CC5)nc4c3)CC2)cn1` [Compound A1, (5-{1-[(6-methoxypyridin-3-yl)methyl]piperidin-4-yl}-1H-benzimidazol-2-yl){4-[4-(trifluoromethyl)benzyl]piperazin-1-yl}methanone] the “Rate of tumor regression” value (A427 cells [5]) was 41% regression, the “Rate of tumor regression” value (NCI-H1395 cells [6]) was 16% regression and the “Inhibition rate of tumor growth” value (HARA cells [7]) was 32% inhibition. The “Inhibition rate of tumor growth” value (NCI-H1993 cells [8]) was 62% inhibition, the “Inhibition rate A427” value (A427 cells [1]; [13]) was 84% inhibition and the “Inhibition rate NCI-H1395” value (NCI-H1395 cells [2]; [14]) was 61%. For the same compound, the “Inhibition rate HARA” value (HARA cells [3]; [15]) was 1.2% and the “Inhibition rate NCI-H1993” value (NCI-H1993 cells [4]; [16]) was 47%.

Reference: US20170360779A1, “PHARMACEUTICAL COMPOSITION COMPRISING BICYCLIC NITROGEN-CONTAINING AROMATIC HETEROCYCLIC AMIDE COMPOUND AS ACTIVE INGREDIENT” (Astellas Pharma Inc., priority 2014, published 2017)
